Experimental data from patent US12409172B2, “Dosage regimen” (UNION therapeutics A/S, priority 2023, dated 2025).

Experiments:
healthy volunteers = assay: Clinical trial LP0058-1442 (phase 1, NCT03812198): safety and tolerability in healthy volunteers; assay type: in vivo
Protocol: The safety, tolerability, and PK of orismilast MR and IR formulations were tested in a phase 1 clinical trial (NCT03812198) on healthy volunteers. Participants were randomised (3:1) to received orismilast MR or placebo (n=12). Orismilast MR was administered twice-daily for a total of 17 days. Orismilast MR was initiated at 10 mg twice-daily on days 1-2, increased to 20 mg twice-daily on days 3-4, to 30 mg twice-daily on days 5-6, to 40 mg twice-daily on days 7-8, to 50 mg twice-daily on days 9-10, and finally to 60 mg twice-daily on days 11-17.
Twenty-seven (27) healthy volunteers received a single administration of 30 mg orismilast, and 9 subjects received multiple administrations over a period of 17 days with an up-titration up to a maximum of 60 mg BID. Part 1 of this study was to evaluate the key PK parameters of the new modified-release formulation compared to the reference capsule formulation with immediate release.
In that study, patients received orismilast 30 mg BID immediate release or placebo for 16 weeks.

[1] = test system: adults with moderate-to-severe plaque-type psoriasis; assay: Phase 2b dose-ranging study in psoriasis (Example 3): treatment-emergent adverse events and discontinuations; assay type: in vivo, human
Text: • Percentage change in Psoriasis […] and Severity Index (PASI) score from Baseline at Week 16. Key Secondary Endpoints • Patients achieving 75% reduction in PASI (PASI75) response at Week 16. • Patients achieving a score of Clear (0) or Almost Clear (1) and an at least 2-point improvement in Investigator Global Assessment (IGA) at Week 16. […] Safety Endpoints: • The occurrence, severity, and seriousness of treatment-emergent adverse events (TEAEs) reported over the 16-week Treatment Period and the 4-week Follow-up Period. • Changes from Baseline in physical examination; vital sign measurements (body temperature, respiration rate, heart rate, and systolic and diastolic blood pressure measurements); and body weight over the 16-week Treatment Period and the 4-week Follow-up Period. • Changes from Baseline in electrocardiogram (ECG) findings over the 16-week Treatment Period and the 4-week Follow-up Period. • Changes from Baseline in safety laboratory values (haematology, serum chemistry, and urinalysis) over the 16-week Treatment Period and the 4-week Follow-up Period. • Hospital Anxiety and Depression Scale at each visit except Week 2. • Columbia-Suicide Severity Rating Scale (C-SSRS) at each visit except Weeks 1 and 2. Exploratory Endpoints: • Change from Baseline in Physician's Global Assessment of Fingernails (PGA-F) at Week 16. • Change in Scalp-Specific Investigator Global Assessment (ss-IGA) from Baseline at Week 16 in the subgroup of patients with Baseline score of at least 2 (mild scalp psoriasis). • Change from Baseline of scalp itch Numeric Rating Scale (NRS) at Week 16 in the subgroup of patients with Baseline score of at least 4 on the 11-point NRS. • Change from Baseline in joint pain NRS at Week 16 in patients with psoriatic arthritis (PsA) and a Baseline joint pain score of at least 4. • Change in cardiovascular risk factors at Week 16. The following parameters will be collected: weight, body mass index, waist and hip circumferences, blood pressure, fasting serum glucose, triglycerides, cholesterol (total and high-density lipoprotein/low-density lipoprotein fractions), and C-reactive protein. • Change from Baseline in skin biomarkers at Week 16 collected via tape stripping and analysed using proteomic methods. • Plasma levels of the drug and its metabolites at scheduled visits. Study Design
At Baseline and each visit from Week 4 onwards, PASI, BSA, IGA, and PSS were assessed. Quality of life was assessed by administration of DLQI at Baseline and at Weeks 16 and 20 visits. Additional efficacy parameters include: an ss-IGA, a Physician Global Assessment of fingernail psoriasis (PGA-F), and patient's joint pain NRS for those with a diagnosis of PsA. These parameters were assessed at Baseline and Weeks 16 and 20. Safety evaluations include adverse events (Aes), laboratory and vital sign assessments, physical examinations, as well as mood change evaluation by patient (Hospital Anxiety and Depression Scale) and suicidal ideation evaluation by Investigator (C-SSRS). A panel of cardiovascular risk factors were assessed at Baseline and Week 16.

CYP3A4 = target: T1, CYP3A4 (Homo sapiens, UniProt P08684); assay: CYP3A4 inhibition from clinical studies; assay type: in vivo
T1 construct: from tissue; host or cells: human subjects in vivo (clinical studies); no organ is named
Text: Patients receiving orismilast concurrently with these medicinal • products should be monitored for related AEs, especially if they have a narrow therapeutic window.

[2] = test system: PDE4B and PDE4D subtype splice variants; assay: PDE4 inhibition in vitro; assay type: biochemical
[3] = Chinese healthy volunteer study CIB1353A101: PK; conditions: human, in vivo, oral; CIBI3S3A101 (D1 = 10 mg); N 18; read-out: AUClast, NCA GM (CV %)
[4] = test system: PDE4B and PDE4D subtype splice variants; conditions: in vitro; cited from earlier work
[5] = test system: chronic oxazolone-induced ear skin inflammation; conditions: 10 and 30 mg/kg doses; cited from earlier work

T1 sequence (P08684 whole entry): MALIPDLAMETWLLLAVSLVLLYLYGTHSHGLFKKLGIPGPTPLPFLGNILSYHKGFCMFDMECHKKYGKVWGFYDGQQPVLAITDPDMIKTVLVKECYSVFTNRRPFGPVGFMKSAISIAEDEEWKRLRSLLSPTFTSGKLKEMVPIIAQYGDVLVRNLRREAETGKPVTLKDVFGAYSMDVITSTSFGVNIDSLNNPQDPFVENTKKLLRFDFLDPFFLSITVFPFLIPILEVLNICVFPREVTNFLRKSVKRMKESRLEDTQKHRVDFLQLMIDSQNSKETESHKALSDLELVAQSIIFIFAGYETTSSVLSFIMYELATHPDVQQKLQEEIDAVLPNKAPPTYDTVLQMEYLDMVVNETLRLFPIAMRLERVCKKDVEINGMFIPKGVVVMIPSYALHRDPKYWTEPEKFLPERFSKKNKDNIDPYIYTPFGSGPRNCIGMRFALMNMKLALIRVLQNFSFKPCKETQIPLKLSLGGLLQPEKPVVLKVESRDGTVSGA

Structure (SMILES): O=C(Cc1c(Cl)c[n+]([O-])cc1Cl)c1ccc(OC(F)F)c2c1OC1(CCS(=O)(=O)CC1)O2 [orismilast, 2-(3,5-dichloro-1-oxidopyridin-1-ium-4-yl)-1-[7-(difluoromethoxy)-1′,1′-dioxospiro[1,3-benzodioxole-2,4′-thiane]-4-yl]ethanone]
- number of adverse events of headache at the 40-mg dose level (healthy volunteers; 40-mg dose level): 6
- number of participants with nausea at a dose equal or lower to 40 mg (healthy volunteers; dose equal or lower to 40 mg): 2
- maximal tolerated dose (healthy volunteers; modified-release tablet, healthy volunteers): 40 mg BID
- number of adverse events of headache (healthy volunteers; subjects receiving orismilast, up-titration up to 60 mg BID): 14
- number of subjects with nausea (healthy volunteers; up-titration up to 60 mg BID, 9 subjects): 5
- Abdominal pain upper, adverse event leading to treatment discontinuation ([1]; 20 mg BID): 2.1%
- Abdominal pain upper, treatment-emergent adverse event ([1]; 20 mg BID): 2.1%
- Diarrhea (incl. loose stool), adverse event leading to treatment discontinuation ([1]; 20 mg BID): 10.4%
- Diarrhea (incl. loose stool), treatment-emergent adverse event ([1]; 20 mg BID): 37.5%
- Dizziness, adverse event leading to treatment discontinuation ([1]; 20 mg BID): 2.1%
- Dizziness, treatment-emergent adverse event ([1]; 20 mg BID): 6.3%
- Headache, adverse event leading to treatment discontinuation ([1]; 20 mg BID): 2.1%
- Headache, treatment-emergent adverse event ([1]; 20 mg BID): 12.5%
- Nausea, adverse event leading to treatment discontinuation ([1]; 20 mg BID): 4.2%
- Nausea, treatment-emergent adverse event ([1]; 20 mg BID): 22.9%
- Vomiting, adverse event leading to treatment discontinuation ([1]; 20 mg BID): 0%
- Vomiting, treatment-emergent adverse event ([1]; 20 mg BID): 6.3%
- discontinuations due to adverse events ([1]; 20 mg BID): 21%
- Abdominal pain upper, adverse event leading to treatment discontinuation ([1]; 30 mg BID): 2.0%
- Abdominal pain upper, treatment-emergent adverse event ([1]; 30 mg BID): 6.0%
- Diarrhea (incl. loose stool), adverse event leading to treatment discontinuation ([1]; 30 mg BID): 6.0%
- Diarrhea (incl. loose stool), treatment-emergent adverse event ([1]; 30 mg BID): 48.0%
- Dizziness, adverse event leading to treatment discontinuation ([1]; 30 mg BID): 2.0%
- Dizziness, treatment-emergent adverse event ([1]; 30 mg BID): 14.0%
- Headache, adverse event leading to treatment discontinuation ([1]; 30 mg BID): 4.0%
- Headache, treatment-emergent adverse event ([1]; 30 mg BID): 26.6%
- Nausea, adverse event leading to treatment discontinuation ([1]; 30 mg BID): 8.0%
- Nausea, treatment-emergent adverse event ([1]; 30 mg BID): 38.0%
- Vomiting, adverse event leading to treatment discontinuation ([1]; 30 mg BID): 2.0%
- Vomiting, treatment-emergent adverse event ([1]; 30 mg BID): 8.0%
- discontinuations due to adverse events ([1]; 30 mg BID): 20%
- Abdominal pain upper, adverse event leading to treatment discontinuation ([1]; 40 mg BID): 7.5%
- Abdominal pain upper, treatment-emergent adverse event ([1]; 40 mg BID): 11.3%
- Diarrhea (incl. loose stool), adverse event leading to treatment discontinuation ([1]; 40 mg BID): 20.8%
- Diarrhea (incl. loose stool), treatment-emergent adverse event ([1]; 40 mg BID): 45.3%
- Dizziness, adverse event leading to treatment discontinuation ([1]; 40 mg BID): 1.9%
- Dizziness, treatment-emergent adverse event ([1]; 40 mg BID): 15.1%
- Headache, adverse event leading to treatment discontinuation ([1]; 40 mg BID): 3.8%
- Headache, treatment-emergent adverse event ([1]; 40 mg BID): 20.8%
- Nausea, adverse event leading to treatment discontinuation ([1]; 40 mg BID): 11.3%
- Nausea, treatment-emergent adverse event ([1]; 40 mg BID): 41.5%
- Vomiting, adverse event leading to treatment discontinuation ([1]; 40 mg BID): 5.7%
- Vomiting, treatment-emergent adverse event ([1]; 40 mg BID): 13.2%
- inhibition of CYP3A4 (CYP3A4): weak inhibitor
- inhibition of the PDE4 isoforms PDE4D3 and PDE4B2 [2]: selective inhibitor
- AUC(0-t) [3]: 167 ng·h/mL
- inhibition of PDE4B and PDE4D subtype splice variants [4]: potent inhibitor
- ear thickness and inflammation markers [5]: significantly reduced
